Source: patent US10159678B2, “Methods to decrease susceptibility to asthmatic bronchoconstriction” (Cornell University, priority 2012, dated 2018)

How the values were obtained:
[1] = test system: Human bronchial epithelial cells; test: Viability of human bronchial epithelial cells; format: cell-based; settings: myriocin (1 μM) or fenretinide (10 μM) for 3 hours
Method: (§1) Human bronchial epithelial cells were incubated with either myriocin (1 μM) or fenretinide (10 μM) for 3 hours. The amounts of sphingolipids were then quantified by mass spectrometry.
The viability of the cells was not affected by fenretinide or myriocin. Fenretinide can induce cell death at doses as low as 5 μM in cancer cells (Wang et al. Cancer Res 61:5102-5 (2001)), but toxicity is usually not seen in doses up to 12 μM in non-malignant cells (Li et al., Cancer Letters 284:175-81 (2009); O'Donnell et al., Leukemia 16:902-10 (2002)). Accordingly, low doses of fenretinide may effectively alleviate bronchial hyper reactivity.

cancer cells = cancer cells (Wang et al. 2001); cited from earlier work
non-malignant cells = non-malignant cells (Li et al. 2009; O'Donnell et al. 2002); cited from earlier work
[2] = test system: Human bronchial epithelial cells; test: Sphingolipids by mass spectrometry in human bronchial epithelial cells; format: cell-based; settings: fenretinide (10 μM) for 3 hours; FIG. 7
Method: FIG. 7 illustrates that fenretinide increases metabolites of de-novo sphingolipid synthesis. Human bronchial epithelial cells were incubated with myriocin (1 μM) or fenretinide (10 μM) for 3 h in serum free medium supplemented with fatty acid-free bovine serum albumin (0.1%). Cell lysates were analyzed by mass spectrometry. The sums (mean+SEM) of all dihydroceramides are shown as a reflection of the activity of the de-novo sphingolipid synthesis pathway.
as §1

CFTR [3] = target: T1, CFTR (Mus musculus, UniProt P26361); test: Airway resistance to methacholine after intranasal GlyH-101 in Sptlc2+/+ and Sptlc2+/- mice; format: in vivo; settings: GlyH-101 (5 μg) intranasally, after 3 h
T1 construct: administered directly to the respiratory tract; from tissue; host or cells: live Sptlc2+/+ and Sptlc2+/- mice (airways)
Method: Mice were anaesthetized with pentobarbital (100 mg/kg; American Pharmaceutical Partners, Los Angeles, Calif.), tracheostomized and mechanically ventilated at a rate of 150 breaths/min, a tidal volume of 10 ml/kg and positive end-expiratory pressure of 2-3 cm H2O using a computer-controlled animal ventilator (Sireq, Montreal, Canada). Three perturbations were used to assess baseline respiratory mechanics and the effects were analyzed using the Flexivent software (Scireq): • (1) Static compliance was determined using the Salazar-Knowles equation (Colebatch et al., J Appl Physiol 46:387-393 (1971) to the plateau pressure measurements obtained between total lung capacity and functional residual capacity; • (2) Single-frequency forced oscillations were applied to determine tissue resistance (R), elastance (E) and dynamic compliance (C) using a single compartment model; • (3) Broadband forced oscillations were applied to determine Newtonian (airway) resistance (Rn), tissue damping (G) and tissue elastance using a constant phase model. Rn and G were also assessed following increasing doses of methacholine (3.125, 12.5 and 50 mg/ml). […]

[4] = test system: cystic fibrosis tracheal cells; test: Sphinganine in cell lysates by LC-MS/MS after GlyH-101; format: cell-based, human; settings: GlyH-101 (50 μM) in culture medium, cells from the trachea of cystic fibrosis patients; FIG. 6A
Method: (§2) GlyH-101 (50 μM) was added to culture media of cystic fibrosis tracheal cells, non-cystic fibrosis tracheal cells or A549 cells (a lung epithelial cell line).
(§3) Sphinganine, an intermediate of de-novo sphingolipid synthesis, was quantified in cell lysates by LC-MS/MS.

A549 cells = test: as above; format: cell-based; settings: GlyH-101 (50 μM), A549 lung epithelial cell line; FIG. 6B
Method: as §2, §3

[5] = test system: non-cystic fibrosis tracheal cells; test: as above; format: cell-based; settings: GlyH-101 (50 μM) in culture media, non-CF airway epithelial cells; FIG. 6A
Method: as §2, §3

CFTR [6] = target: T1, CFTR; test: Myograph contractile response of bronchial rings from Sptlc2+/- or Sptlc2+/+ mice with GlyH-101 in bath; settings: 2 hr in bath, methacholine (10 mM), FIG. 6C
Method: In another experiment, bronchial rings were isolated from Sptlc2^+/− or Sptlc2^+/+ mice and mounted in a myograph. CFTR inhibitor GlyH-101 or the solvent DMSO (control) were added to the bath solution. After 2 hr contractile responses of the rings stimulated with methacholine (10 mM) were determined.

T1 sequence (P26361 whole entry): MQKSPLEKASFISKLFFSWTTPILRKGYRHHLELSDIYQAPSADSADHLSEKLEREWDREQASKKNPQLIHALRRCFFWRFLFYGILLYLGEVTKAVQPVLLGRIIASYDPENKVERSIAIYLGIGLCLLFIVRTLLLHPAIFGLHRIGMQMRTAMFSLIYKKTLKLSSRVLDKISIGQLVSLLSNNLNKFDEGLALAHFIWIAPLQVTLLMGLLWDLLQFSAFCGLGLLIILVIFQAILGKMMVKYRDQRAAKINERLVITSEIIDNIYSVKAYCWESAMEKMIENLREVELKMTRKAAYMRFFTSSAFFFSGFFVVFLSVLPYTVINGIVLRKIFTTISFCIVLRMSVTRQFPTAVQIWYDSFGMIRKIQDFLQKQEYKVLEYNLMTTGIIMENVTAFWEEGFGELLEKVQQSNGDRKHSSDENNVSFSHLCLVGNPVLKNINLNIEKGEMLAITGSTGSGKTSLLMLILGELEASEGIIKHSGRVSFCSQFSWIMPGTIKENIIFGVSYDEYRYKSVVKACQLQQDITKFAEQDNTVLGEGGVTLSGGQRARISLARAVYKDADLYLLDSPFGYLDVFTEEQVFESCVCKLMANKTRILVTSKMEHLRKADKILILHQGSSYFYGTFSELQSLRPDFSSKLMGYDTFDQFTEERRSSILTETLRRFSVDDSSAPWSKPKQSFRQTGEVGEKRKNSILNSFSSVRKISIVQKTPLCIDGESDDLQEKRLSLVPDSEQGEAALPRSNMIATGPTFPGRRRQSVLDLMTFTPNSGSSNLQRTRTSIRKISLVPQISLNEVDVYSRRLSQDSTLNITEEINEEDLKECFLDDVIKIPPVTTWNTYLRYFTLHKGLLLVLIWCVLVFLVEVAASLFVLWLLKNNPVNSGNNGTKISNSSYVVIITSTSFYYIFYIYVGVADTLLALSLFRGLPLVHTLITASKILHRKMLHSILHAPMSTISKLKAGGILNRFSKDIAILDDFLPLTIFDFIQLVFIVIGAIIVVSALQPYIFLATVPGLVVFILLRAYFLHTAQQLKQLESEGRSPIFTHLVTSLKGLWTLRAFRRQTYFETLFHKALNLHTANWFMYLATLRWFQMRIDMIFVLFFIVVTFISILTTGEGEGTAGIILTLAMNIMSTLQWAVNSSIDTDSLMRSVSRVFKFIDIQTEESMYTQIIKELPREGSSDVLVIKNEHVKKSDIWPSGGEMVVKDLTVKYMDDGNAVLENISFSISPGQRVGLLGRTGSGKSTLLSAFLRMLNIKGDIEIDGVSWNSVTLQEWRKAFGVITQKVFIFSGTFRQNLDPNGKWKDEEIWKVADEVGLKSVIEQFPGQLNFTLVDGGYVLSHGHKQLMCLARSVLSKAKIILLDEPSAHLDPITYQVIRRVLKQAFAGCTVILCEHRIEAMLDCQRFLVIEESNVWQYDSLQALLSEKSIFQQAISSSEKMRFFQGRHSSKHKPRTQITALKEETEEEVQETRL

SMILES	viability of the cells [1]	doses that can induce cell death (cancer cells) [µM]	doses at which toxicity is usually not seen (non-malignant cells)	sum of all dihydroceramides [2]	airway resistance after methacholine (CFTR [3]; Sptlc2+/- mice, FIG. 6E)	bronchial reactivity after methacholine (CFTR [3]; control Sptlc2+/+ mice, FIG. 6D)	sphinganine level [4]	sphinganine level (A549 cells)	sphinganine level [5]	contractile response of bronchial rings upon methacholine (CFTR [6]; rings from Spt-deficient mice)	contractile response of bronchial rings (CFTR [6]; rings from wild type mice (Sptlc+/+))
CC1=C(/C=C/C(C)=C/C=C/C(C)=C/C(=O)Nc2ccc(O)cc2)C(C)(C)CCC1 [fenretinide, N-(4-hydroxyphenyl)retinamide]	not affected	≥ 5	up to 12 μM	increased							
O=C(CNc1ccc2ccccc2c1)N/N=C/c1cc(Br)c(O)c(Br)c1O [GlyH-101, (Naphthalen-2-ylamino)-acetic acid (3,5-dibromo-2,4,-dihydroxybenzylidene)-hydrazide]					alleviated	no effect	not altered	increases	increases	decreased	increased contractile response
